# Measured values: the supplement of paper PMC10307832
# Compound: COc1cc(-c2nn([C@H]3CC[C@H](N4CCN(C(C)=O)CC4)CC3)c3ncnc(N)c23)ccc1NC(=O)c1cc2ccccc2n1C + CC1(C)CCC(c2ccc(Cl)cc2)=C(CN2CCN(c3ccc(C(=O)NS(=O)(=O)c4ccc(N[C@H](CCN5CCOCC5)CSc5ccccc5)c(S(=O)(=O)C(F)(F)F)c4)cc3)CC2)C1 [Navitoclax] (partner 0.5 µM)
# Test: relative viability (nuclei count vs DMSO), 5 days (fraction); higher = more cells survive
# Conditions: first compound 0.128 µM
# How it was run: (§1)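 Relative viability was taken as the ratio of nuclei in treated wells to nuclei in vehicle wells. Lung cancer cell lines in 1536-well plates received compounds by pin tool one day after seeding, either one drug alone or a fixed anchor-drug dose plus five library-drug doses (not always all listed) in √10 steps. Nuclei were counted on 4× images after 5 days of treatment, and values are medians of duplicate plates.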
row,Cell Line,relative viability
1,IA-LM,0.87
2,ChaGo-K-1,0.881
3,HCC-44,1.02
4,A549,1.17
5,NCI-H1299,1.08
6,NCI-H1792,0.609

# Same assay, conditions: first compound 1.28 µM
row,Cell Line,relative viability
1,NCI-H727,0.289
2,NCI-H1650,1.1
3,EBC-1,0.339
4,NCI-H1703,0.236
5,NCI-H1993,0.709
6,SW 1573,0.716
7,NCI-H838,0.859
8,NCI-H520,0.861
9,NCI-H2126,0.641
10,EMC-BAC-2,1.05
11,NCI-H2085,1.01
12,Calu-6,0.722
13,HCC-366,0.821
14,NCI-H1666,0.955
15,NCI-H596,0.525
16,LK-2,0.685
17,NCI-H2087,1.2
18,SK-MES-1,1.15
19,H3255,0.259
20,COR-L23,0.982
21,IA-LM,0.968
22,ChaGo-K-1,0.986
23,HCC-44,0.934
24,A549,1.15
25,NCI-H1299,1.13
26,NCI-H1792,0.624

# Compound: COc1cc(-c2nn([C@H]3CC[C@H](N4CCN(C(C)=O)CC4)CC3)c3ncnc(N)c23)ccc1NC(=O)c1cc2ccccc2n1C + Cc1nc(NC(=O)N2CCC[C@H]2C(N)=O)sc1-c1ccnc(C(C)(C)C(F)(F)F)c1 [Alpelisib] (partner 2 µM)
# Test: as above
# Conditions: first compound 0.0128 µM
# How it was run: as §1
row,Cell Line,relative viability
1,NCI-H727,0.62
2,EBC-1,0.823
3,NCI-H1703,0.372
4,NCI-H1993,0.76
5,SW 1573,0.788
6,NCI-H838,1.03
7,LCLC-103H,1.02
8,NCI-H520,0.881
9,NCI-H2126,0.757
10,EMC-BAC-2,0.749
11,NCI-H2085,1.08
12,Calu-6,0.927
13,HCC-366,0.444
14,NCI-H1666,0.981
15,NCI-H596,0.523
16,LK-2,0.91
17,NCI-H2087,1.29
18,SK-MES-1,0.972
19,H3255,0.886
20,COR-L23,0.749
21,IA-LM,0.838
22,HCC-44,0.923
23,A549,0.739
24,NCI-H661,0.418
25,NCI-H1299,1.1
26,NCI-H1792,0.78
27,NCI-H1563,0.876
28,ABC-1,0.972
29,NCI-H358,0.725
30,NCI-H650,1.49

# Same assay, conditions: first compound 0.04048 µM
row,Cell Line,relative viability
1,EBC-1,0.785
2,NCI-H1703,0.243
3,NCI-H1993,0.771
4,SW 1573,0.508
5,NCI-H838,1.01
6,LCLC-103H,0.938
7,NCI-H520,0.908
8,NCI-H2126,0.858
9,EMC-BAC-2,0.743
10,NCI-H2085,0.949
